# Data: patent US9907848B2, “Methods and compositions for treatment of metabolic disorders” (Beth Israel Deaconess Medical Center, Inc., priority 2010, dated 2018)
# Entries after “also recorded” stand apart in the source; their conditions may differ.
# Key:
# iNKT cells [1] = assay: αGC treatment of obese Jα18 KO mice (no iNKT cells), control; type: in vivo; details: 4 days post αGC
# Method: (§1) The prototypical ligand for iNKT cells is the glycolipid, αGC. We investigated whether αGC treatment could activate the residual iNKT cells in obesity and improve metabolic outcome (FIGS. 16A-16H).
# (§2) Wt, Jα18 KO and CD1d KO were weighed weekly and food intake was monitored on HFD. Body fat content was measured by an X-ray emitting DEXA scan, performed after mice were sacrificed. Whole abdominal adipose fat pads were weighed after dissecting out the testes and lymph nodes. After 6 weeks on HFD, fasting blood glucose (OneTouch Ultra) and insulin concentrations (Crystal Chem ELISA) were measured. For glucose tolerance tests, fasted (10 h) mice received 1 g glucose per kg body weight intraperitoneally (i.p); for insulin resistance, the homeostatic model assessment of insulin resistance (HOMA-IR) was used (Matthews et al., Diabetologia 28:412-419, 1985) was used: fasting blood glucose×fasting insulin/22.5. Two samples of 5 mm liver were collected and fixed in formalin overnight, prior to paraffin mounting and preparation of ME or Oil Red 0 stained slides for measurement of fatty liver or adipose prior to αGC (or control) treatment. For H&E and Oil Red O staining, biopsies were viewed using the 20× objective. Degree of fatty liver was measured by Oil Red O staining intensity around 5 portal tract areas per slide.
# (§3) Mice were injected i.p. with 2 μg of αGC or vehicle, and mice were sacrificed after 5 hours or 4 days, at the time of metabolic analysis. Single cell suspension of splenocytes, LMNC, and adipose tissue SVF were obtained as before, but with the inclusion of Brefeldin A in all media. Single cell suspensions of splenocytes or liver mononuclear cells (LMC) were stained firstly with cell surface labeling anti-CD3 mAb and αGC-loaded CD1d tetramer. Cells were then fixed, permeabilized, and intracellular cytokine stained for IL-4, IL-10 and IFN-γ using Cytofix/cytoperm (BD Biosciences), according to the manufacturer's instructions.
# iNKT [2] = details: literature statement; cited from earlier work
# iNKT cells [3] = assay: αGC treatment of obese wt mice on HFD, metabolic outcome 4 days post-injection; type: in vivo
# Method: as §1, §2
# Adipocyte size and number were measured by osmium and immunohistochemistry. Two samples of 20-30 mg of adipose tissue per mouse were immediately fixed in osmium tetroxide (3% solution in collidine 0.05 M), minced into 1 mm pieces and incubated in the dark at room temperature for 48 hours. Adipose cell size and number were determined by a Beckman Coulter Multisizer III Counter with a 400 μm aperture. Adipose tissue was also fixed in formalin overnight, prior to paraffin mounting and preparation of H&E slid s. Adipocyte number was counted per field of view, in ten fields per sample and related back to the original weight of each fat pad.
# as §3
# iNKT cells [4] = assay: αGC treatment of normal weight mice on SFD; type: in vivo
# Method: as §1
# as §2, with “After 6 weeks on HFD, fasting blood glucose (OneTouch Ultra) and insulin concentrations (Crystal Chem ELISA) were measured.” left out
# Mice were injected i.p. with 2 μg of αGC or vehicle, and mice were sacrificed after 5 hours or 4 days, at the time of metabolic analysis. […]
# iNKT cells [5] = assay: Effect of αGC on iNKT cells in fat, liver and spleen of obese mice; type: in vivo
# Method: Single cell suspensions of splenocytes, liver mononuclear cells (LMNCs), and adipose SVF were blocked with anti-CD16/32 mAb and stained for 30 min at 4° C. in the dark with PBS-57-loaded or empty CD1d tetramer-PE (NIH tetramer facility) and CD3 (1:150 dilution, eBiosciences). Macrophages were labeled with phycoerythrin-conjugated antibody to F4/80 (1 in 100) and CD11c (1 in 200) and CD206 (1 in 200) to differentiate M1 from M2 macrophages in the SVF as previously described.
# as §3
# iNKT [6] = assay: In vitro iNKT cytokine production stimulated by αGC-loaded CD1d+ C1R cells; type: cell-based, mice; details: isolated iNKT stimulated with αGC
# Source text: (§4) To verify the cytokine profile, iNKT were isolated (>90% purity) and stimulated in vitro with αGC.
# iNKT cells [7] = assay: Effect of αGC on iNKT cells in fat, liver and spleen of obese mice; type: in vivo; details: after 6 hours
# IL-4 and IL-10 = assay: Neutralizing IL-4 and IL-10 prior to αGC treatment, metabolic outcomes after 4 days; type: in vivo, mice; details: IL-4 and IL-10 neutralized before αGC injection
# Source text: As adipose tissue iNKT cells are skewed towards IL-4 and IL-10 production, we next investigated whether IL-4 and IL-10 were mediators of this protection seen by αGC treatment. We neutralized IL-4 and IL-10 prior to αGC treatment and measured metabolic outcomes after 4 days.
# iNKT [8] = assay: iNKT cytokine production in response to αGC in vivo (wt mice)
# Method: as §4, §3
smiles,measurement,setting,value
"CCCCCCCCCCCCCCCCCCCCCCCCCC(=O)NC(COC1OC(CO)C(O)C(O)C1O)C(O)C(O)CCCCCCCCCCCCCC (stereo not drawn) [αGC, α-galactosylceramide]",GTT,iNKT cells [1],not seen; also recorded: did not affect
same,fasting glucose,iNKT cells [1],improvement in fasting glucose was not seen; also recorded: did not affect
same,weight loss,iNKT cells [1],weight loss was not seen
same,activation of iNKT,iNKT [2],activate iNKT
same,% body fat (DEXA),iNKT cells [3]; 4 days post αGC injection,lost a significant amount; also recorded: decreased
same,adipocyte number,iNKT cells [3]; 4 days post αGC injection,did not affect cell number; also recorded: did not differ
same,adipocyte size,iNKT cells [3]; 4 days post αGC injection,rapid and dramatic reduction in adipocyte size; also recorded: decreased
same,circulating leptin,iNKT cells [3]; 4 days post αGC injection,significantly improved; also recorded: decreased
same,glucose tolerance test (GTT),iNKT cells [3]; 4 days post αGC injection,"improved GTT, returning it to almost normal"
same,insulin resistance / insulin sensitivity,iNKT cells [3]; 4 days post αGC injection,significantly improved insulin resistance; also recorded: increased insulin sensitivity
same,lean mass (DEXA),iNKT cells [3]; 4 days post αGC injection,did not differ
same,serum IL-4,iNKT cells [3]; 4 days post αGC injection,non-significant increase
same,serum IL-6,iNKT cells [3]; 4 days post αGC injection,decreased serum IL-6
same,serum TNFα,iNKT cells [3]; 4 days post αGC injection,increased serum TNF-a
same,serum triglycerides (circulating TGL),iNKT cells [3]; 4 days post αGC injection,significantly improved; also recorded: decreased circulating TGL
same,fat deposition in the liver (Oil Red O),"iNKT cells [3]; 4 days post αGC injection, vs PBS",fat droplets were smaller and less frequent
same,fasting blood glucose,"iNKT cells [3]; 4 days post αGC injection, vs PBS control",marked reduction of fasting blood glucose
same,overall weight,"iNKT cells [3]; one i.p. injection of αGC, continued HFD for 4 days, vs PBS/vehicle",lost a significant amount of overall weight
same,GTT,iNKT cells [4],did not affect
same,fasting glucose,iNKT cells [4],did not affect
same,IFNγ production by adipose tissue iNKT cells,"iNKT cells [5]; 4-5 hours, vs spleen and liver",little IFNγ
same,IL-4 and IL-10 production by adipose tissue iNKT cells,"iNKT cells [5]; 4-5 hours, vs spleen and liver",more IL-4 and IL-10
same,expansion of iNKT cells in fat (adipose tissue),iNKT cells [5]; 4 days post-injection,expansion was greater in fat; also recorded: dramatic expansion
same,cytokine production by adipose tissue iNKT cells,iNKT cells [5]; day 4 post-injection,"still producing cytokines at day 4; also recorded: produced IL-4, IL-10, and IFN-γ at day 4; also recorded: remained actively producing cytokines"
same,expansion of iNKT cells in spleen and liver,iNKT cells [5]; day 4 post-injection,expansion of iNKT cells by day 4
same,cytokine production by liver and spleen iNKT cells,iNKT cells [5]; within 4-5 hours,produced both IFNγ and IL-4
same,IL-10 production by adipose iNKT in vitro,iNKT [6]; vs liver or spleen,significantly more IL-10 per cell
same,IFNγ production by adipose iNKT in vitro,iNKT [6]; vs splenic or hepatic iNKT,low levels of IFNγ; also recorded: significantly less IFNγ
same,invariant TCR expression on iNKT cells,iNKT cells [7],down-regulation of the invariant TCR after 6 hours
same,GTT,IL-4 and IL-10,prevented improvement
same,fasting glucose,IL-4 and IL-10,prevented improvement
same,IL-4 production by adipose iNKT in vivo,iNKT [8]; following injection of αGC,slightly less IL-4
same,IL-10 production by adipose iNKT in vivo,"iNKT [8]; following injection of αGC, vs liver and spleen",significantly more IL-10
same,IFNγ production by adipose iNKT in vivo,"iNKT [8]; following injection of αGC, vs liver or spleen",did not produce IFNγ
same,IFNγ production by spleen and liver iNKT in vivo,iNKT [8]; response to αGC,copious IFNγ
same,IL-4 production by spleen and liver iNKT in vivo,iNKT [8]; response to αGC,less IL-4
same,IL-10 production by spleen and liver iNKT in vivo,iNKT [8]; response to αGC,very low levels of IL-10
